Assay results taken from patent publication US20260174862A1, “PHARMACEUTICAL COMPOSITION COMPRISING PRMT5 INHIBITOR AND PD-1/PD-L1 INHIBITOR” (APEIRON THERAPEUTICS (HONG KONG) LTD., priority 2024, published 2026).

Test system: DuNN MTAP KO cells
Experiment: In vivo pharmacodynamic study in C3H mouse model of tibial orthotopic xenograft with DuNN MTAP KO cells
Settings: for Tumor volume (mean): tibial orthotopic DuNN MTAP KO tumor, compound D 1 mg/kg PO QD, PD-1 antibody 5 mg/kg I.P. QW, n=6
Procedure: Example 1: In Vivo Pharmacodynamic Study of Compound D in C3H Mouse Model of Tibial Orthotopic Xenograft with DuNN MTAP KO Cells
Cell culture: […] DuNN MTAP KO cells (provided by the Experimental Animal Center of Shanghai First People's Hospital) were cultured in vitro monolayer under the conditions of adding 10% fetal bovine serum and 1% Antibiotic-Antimycotic to DMEM medium, and culturing in a 5% CO2 incubator at 37° C. Pancreatin-EDTA was used twice a week for routine digestion and passage. When the cell saturation is 80%-90% and the number of cells reached the requirement, the cells were collected, counted, and inoculated.
Animals: C3H normal mice, female, 4-6 weeks old, weighing 18-22 g. A total of 30 animals were required (24 enrolled, surplus).
Tumor inoculation: DUNN cells were digested with 0.25% pancreatin-EDTA solution to make them into a single cell suspension, washed with PBS buffer and the cell density was adjusted to 1×10^7/ml for further use. On the day of the experiment, mice were intraperitoneally injected with 0.5% sodium pentobarbital solution at a dose of 40 mg/kg to anesthetize them. A bone hole with a diameter of about 1 mm was drilled in the upper end of the right hindlimb tibia with a 1 ml syringe to reach the marrow cavity. Be careful not to penetrate the contralateral cortical bone and cause fractures or bleeding. A 1 ml syringe and a 25 G needle were used to draw the DUNN cell suspension and it was slowly injected into the tibial bone marrow cavity of the experimental group mice at a dose of 30 μl. Be careful not to cause cell reflux or leakage. After injection, the surgical field was disinfected with 75% alcohol, and the mice were returned to their cages, covered with sterile dressings, kept warm until they woke up, and then continued to be housed for observation. Randomized dosing began when the average tumor volume reached about 150 mm^3. At the end of the experiment, mice were intraperitoneally injected with 0.5% sodium pentobarbital solution at a dose of 120 mg/kg to euthanize them. Their tibia and tumor tissues were removed, fixed with 10% formaldehyde, paraffin sections were made, stained with HE, and the histological morphology and invasion of the tumors were observed under a microscope. The expression of proliferation indicators such as Ki-67 and PCNA in tumor cells was detected by immunohistochemistry.
Administering volume: 10 μL/g based on the weight of mice. If the weight loss exceeds 15%, stop administering immediately and resume it after the weight loss returns to less than 10%.
Animal grouping: Animals were weighed before administration and tumor volumes were measured. Randomized grouping was based on tumor volumes (randomized block design).
Experimental indicators: were used to examine whether tumor growth was inhibited, delayed or cured. The tumor diameter was measured twice a week with a vernier caliper. The calculation equation for tumor volumes is: V=0.5a×b^2, where a and b represent the major and minor diameters of the tumor, respectively.
The antitumor efficacy of the compound was evaluated by TGI (%) or tumor proliferation rate T/C (%). TGI (%) reflects the tumor growth inhibition. Calculation of TGI (%): TGI (%)=[1−(average tumor volume at the end of administering in a treatment group-average tumor volume at the start of administering in this treatment group)/(average tumor volume at the end of treatment in the solvent control group-average tumor volume at the start of treatment in the solvent control group)]×100%.
Tumor proliferation rate T/C (%): The calculation equation is as follows: T/C (%)=Ti/Vi×100%. Where Vi is the average tumor volume of the solvent control group at a certain measurement, and Ti is the average tumor volume of the treatment group at the same measurement. […]

CN(C(=O)c1cc2c(cc1F)nc(N)c1cncn12)[C@@H]1COc2cc(C(F)(F)F)ccc21 [Compound D] was tested, and the “tumor growth inhibition (TGI)” value (25-day study, compound D 1 mg/kg oral once daily, anti-PD-1 antibody 5 mg/kg intraperitoneal, C3H mice, DUNN tibial orthotopic model) was 30.9%, the “Tumor volume (mean)” value (Day 0, C3H mice) was 21.6 mm^3 and the “Tumor volume (mean)” value (Day 4, C3H mice) was 35.7 mm^3. The “Tumor volume (mean)” value (Day 7, C3H mice) was 41.3 mm^3, the “Tumor volume (mean)” value (Day 10, C3H mice) was 52.2 mm^3 and the “Tumor volume (mean)” value (Day 14, C3H mice) was 68.7 mm^3. The “Tumor volume (mean)” value (Day 18, C3H mice) was 85.2 mm^3, the “Tumor volume (mean)” value (Day 21, C3H mice) was 136.9 mm^3 and the “Tumor volume (mean)” value (Day 25, C3H mice) was 225.6 mm^3. The “statistical significance (P) vs. control” value (one-way ANOVA, 25-day study, same doses) was “did not reach statistical significance”.
